pIC50: −log10 of the molar value. Like-named read-outs stand apart in the source and are kept apart here.
Columns and labels:
[1] = molecular target: T1, HEK293 transfected with human DDR2 (Homo sapiens, UniProt Q16832); test: Phospho-DDR2 cellular assay (collagen II induced DDR2 phosphorylation, ELISA); format: cell-based; settings: read-out: IC50 [p-DDR2]
T1 construct: expressed in transfected cells; host or cells: HEK293 (PLT460F_(DDR2)-P7-1)
T1 sequence (Q16832 22-855): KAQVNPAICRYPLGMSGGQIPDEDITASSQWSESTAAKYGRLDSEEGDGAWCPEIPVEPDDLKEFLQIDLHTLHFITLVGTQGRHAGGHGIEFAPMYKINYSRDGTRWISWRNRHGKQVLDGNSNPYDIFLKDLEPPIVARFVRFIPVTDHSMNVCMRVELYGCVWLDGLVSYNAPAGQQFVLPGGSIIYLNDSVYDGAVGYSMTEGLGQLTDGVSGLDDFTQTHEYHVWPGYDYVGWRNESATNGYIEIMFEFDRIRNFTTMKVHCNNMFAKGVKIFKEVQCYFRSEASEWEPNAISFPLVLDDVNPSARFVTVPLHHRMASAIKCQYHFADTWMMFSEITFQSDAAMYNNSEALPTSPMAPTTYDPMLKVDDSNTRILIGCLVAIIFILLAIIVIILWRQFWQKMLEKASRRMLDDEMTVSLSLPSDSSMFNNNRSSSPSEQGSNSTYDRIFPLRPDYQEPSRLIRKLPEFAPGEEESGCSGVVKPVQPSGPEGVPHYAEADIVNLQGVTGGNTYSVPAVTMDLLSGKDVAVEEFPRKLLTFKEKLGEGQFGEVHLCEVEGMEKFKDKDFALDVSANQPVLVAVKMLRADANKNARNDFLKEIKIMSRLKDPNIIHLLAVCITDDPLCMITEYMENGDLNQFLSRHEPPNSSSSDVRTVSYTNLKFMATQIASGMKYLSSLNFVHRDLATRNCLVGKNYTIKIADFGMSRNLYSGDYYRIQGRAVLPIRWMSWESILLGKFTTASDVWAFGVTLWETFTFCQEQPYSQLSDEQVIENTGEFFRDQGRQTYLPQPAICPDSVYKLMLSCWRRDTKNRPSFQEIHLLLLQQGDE
Description: Assays were performed in a 384 well plate format, using cell line HEK293 transfected with human DDR2 (PLT460F_(DDR2)-P7-1)
Cells were seeded at a density of 10'000 cells/well in 384well poly-D-lysine coated Black/clear plate (Cellcoat Greiner) and incubated in DMEM medium in the presence of 10% fetal bovine serum at 37° C., 5% CO2 for 48 h. Medium was replaced by serum-free medium and cells were incubated at 37° C., 5% CO2 for 8 h. Compound to be tested in 5% DMSO or 5% DMSO and 50 μg/ml of chicken collagen II were added and cells were incubated at 37° C., 5% CO2 for 16 h
Cells were rinsed with ice-cold PBS, lysed with lysis buffer (M-PER Thermo #78501) for 30 min at room temperature and centrifuged for 1 min at 1000 RPM. In parallel, White High binding 384 well plates (Corning) were coated with mouse anti-human DDR2 capture antibody (R&D Systems kit DuoSet IC Human phospho-DDR2 ELISA), overnight at RT.
An aliquot of cell lysate was transferred to the coated plates and incubated for 2 h at RT. Plates were washed and mouse anti-phospho-tyrosine detection antibody (R&D Systems kit DuoSet IC Human phospho-DDR2 ELISA) conjugated to horse radish peroxidase (HRP) was added for 2 h at RT. Plates were washed and chemiluminescent substrate for HRP (Thermo) was added for 15 min at RT. Luminescence was measured on a luminometer.

[2] = molecular target: T2, His-tagged human recombinant DDR-2 kinase domain (His-TEV-DDR2 467-855 aa) (Homo sapiens, UniProt Q16832); test: Autophosphorylation assay for biochemical activity testing of DDR2 (HTRF)
T2 construct: His-TEV-DDR2 467-855 aa
T2 sequence (Q16832 467-855): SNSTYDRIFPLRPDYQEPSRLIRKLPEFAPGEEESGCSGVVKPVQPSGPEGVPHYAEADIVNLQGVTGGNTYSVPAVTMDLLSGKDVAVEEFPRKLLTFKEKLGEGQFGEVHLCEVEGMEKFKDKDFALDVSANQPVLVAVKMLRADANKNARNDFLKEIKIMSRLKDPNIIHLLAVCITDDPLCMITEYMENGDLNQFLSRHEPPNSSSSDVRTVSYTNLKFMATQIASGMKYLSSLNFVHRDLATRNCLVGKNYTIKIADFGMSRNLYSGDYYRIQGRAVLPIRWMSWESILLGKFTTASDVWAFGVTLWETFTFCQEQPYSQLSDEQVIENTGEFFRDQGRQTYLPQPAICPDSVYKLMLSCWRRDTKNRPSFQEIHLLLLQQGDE
Outline: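 Phospho-tyrosine was detected by HTRF between XL665 anti-6His and cryptate anti-phosphotyrosine PT66 antibodies, using the emission ratio. Inhibition was referenced to the inhibitor-free reaction.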

[3] = biochemical DDR2 autophosphorylation
[4] = 4 nM DDR2 kinase domain, 150 μM ATP, 150 min at 22° C.

Row | pIC50 ([1]; cellular phospho-DDR2) | pIC50 [2, 3] | Compound | further results
1 | 4.75 |  | CNC(=O)c1cc(Oc2ccc(CNC(=O)Nc3ccc(C)cc3CO)cc2C)ccn1 [compound 196, 4-{4-[3-(2-Hydroxymethyl-4-methyl-phenyl)-ureidomethyl]-2-methyl-phenoxy}-pyridine-2-carboxylic acid methylamide] | 
2 | 5.82 |  | CNC(=O)c1cc(Oc2ccc(CNC(=O)Nc3cccc(N(C)C)c3)cc2)ccn1 [compound 228, 4-{4-[3-(3-Dimethylamino-phenyl)-ureidomethyl]-phenoxy}-pyridine-2-carboxylic acid methylamide] | 
3 | 5.94 |  | CNC(=O)c1cc(Oc2ccc(CNC(=O)Nc3cc(C(F)(F)F)ccc3CN3CCNCC3)cc2)ccn1 [compound 192, 4-{4-[3-(2-Piperazin-1-ylmethyl-5-trifluoromethyl-phenyl)-ureidomethyl]-phenoxy}-pyridine-2-carboxylic acid methylamide] | 
4 | 6.07 |  | CNC(=O)c1cc(Oc2ccc(CNC(=O)Nc3cc(C(F)(F)F)ccc3CN3CCNCC3=O)cc2)ccn1 [compound 208, 4-(4-{3-[2-(2-Oxo-piperazin-1-ylmethyl)-5-trifluoromethyl-phenyl]-ureidomethyl}-phenoxy)-pyridine-2-carboxylic acid methylamide] | 
5 | 5.89 |  | CNC(=O)c1cc(Oc2ccc(CNC(=O)Nc3cc(C(F)(F)F)ccc3CCN)cc2)ccn1 [compound 175, 4-(4-{3-[2-(2-Amino-ethyl)-5-trifluoromethyl-phenyl]-ureidomethyl}-phenoxy)-pyridine-2-carboxylic acid methylamide] | 
6 | 5.10 |  | CNC(=O)c1cc(Oc2ccc(CNC(=O)Nc3cc(C(C)(C)C)n[nH]3)cc2)ccn1 [compound 223, 4-{4-[3-(5-tert-Butyl-2H-pyrazol-3-yl)-ureidomethyl]-phenoxy}-pyridine-2-carboxylic acid methylamide] | 
7 | 7.57 |  | CNC(=O)c1cc(Oc2ccc(CNC(=O)Nc3cccc(C(F)(F)F)c3)cc2F)ccn1 [compound 233, 4-{2-Fluoro-4-[3-(3-trifluoromethyl-phenyl)-ureidomethyl]-phenoxy}-pyridine-2-carboxylic acid methylamide] | 
8 | 6.11 |  | NCCNC(=O)c1cc(Oc2ccc(CNC(=O)Nc3ccc(Cl)c(C(F)(F)F)c3)cc2)ccn1 [compound 148, 4-{4-[3-(4-Chloro-3-trifluoromethyl-phenyl)-ureidomethyl]-phenoxy}-pyridine-2-carboxylic acid (2-amino-ethyl)-amide] | 
9 | 6.52 |  | CNC(=O)c1cc(Oc2ccc(CNC(=O)Nc3cc(C)c(Cl)cc3N(C)CCN(C)C)cc2C)ccn1 [compound 164, 4-[4-(3-{4-Chloro-2-[(2-dimethylamino-ethyl)-methyl-amino]-5-methyl-phenyl}-ureidomethyl)-2-methyl-phenoxy]-pyridine-2-carboxylic acid methylamide] | 
10 |  |  | Cn1cc(C(F)(F)F)cc(NC(=O)NCc2ccc(Oc3ccnc4c3CNC(=O)N4)cc2)c1=O [compound 5] | pIC50 ([1]; HEK293 transfected with human DDR2, 50 μg/ml chicken collagen II, 16 h): 8.23
11 | 7.00 |  | CNC(=O)c1cc(Oc2ccc(CNC(=O)Nc3cc(Cl)c(Cl)cc3Cl)cc2)ccn1 [compound 23] | 
12 | 6.55 |  | CNC(=O)c1cc(Oc2ccc(CNC(=O)Nc3cc(C(F)(F)F)ccc3CC(N)=O)cc2C)ccn1 [compound 207, 4-{4-[3-(2-Carbamoylmethyl-5-trifluoromethyl-phenyl)-ureidomethyl]-2-methyl-phenoxy}-pyridine-2-carboxylic acid methylamide] | 
13 | 6.30 |  | CNC(=O)c1cc(Oc2ccc(CNC(=O)Nc3cccc(S(N)(=O)=O)c3)cc2)ccn1 [compound 157, 4-{4-[3-(3-Sulfamoyl-phenyl)-ureidomethyl]-phenoxy}-pyridine-2-carboxylic acid methylamide] | 
14 | 6.11 |  | CNC(=O)c1cc(Oc2ccc(CNC(=O)Nc3ccc(F)cc3)cc2)ccn1 [compound 12] | 
15 | 5.55 |  | O=C(NCc1ccc(Oc2ccnc(C(=O)O)c2)cc1)Nc1ccc(Cl)c(C(F)(F)F)c1 [compound 99, 4-{4-[3-(4-Chloro-3-trifluoromethyl-phenyl)-ureidomethyl]-phenoxy}-pyridine-2-carboxylic acid] | 
16 |  | 7.62 | CNC(=O)c1cc(Oc2ccc(CNC(=O)Nc3cc(C(F)(F)F)c(Cl)cc3OCC(=O)OC(C)C)cc2)ccn1 [compound 114, (5-Chloro-2-{3-[4-(2-methylcarbamoyl-pyridin-4-yloxy)-benzyl]-ureido}-4-trifluoromethyl-phenoxy)-acetic acid isopropyl ester] | 

Row | pIC50 ([1]; cellular phospho-DDR2) | pIC50 [2, 3] | Compound | further results
17 |  | 7.00 | CNC(=O)c1cc(Oc2ccc(CNC(=O)Nc3cc(C(F)(F)F)c(Cl)cc3OC)cc2F)ccn1 [compound 231, 4-{4-[3-(4-Chloro-2-methoxy-5-trifluoromethyl-phenyl)-ureidomethyl]-2-fluoro-phenoxy}-pyridine-2-carboxylic acid methylamide] | 
18 |  |  | CNC(=O)c1cc(Oc2ccc(CNC(=O)Nc3ccc(C)cn3)cc2C)ccn1 [compound 13] | pIC50 [2, 4]: 6.11
19 |  |  | Cn1cc(C(F)(F)F)cc(NC(=O)NCc2ccc(Oc3ccnc4ccccc34)cc2)c1=O [compound 9] | pIC50 [2, 4]: 7.29
20 |  |  | CNC(=O)c1cc(Oc2ccc(CNC(=O)Nc3cccnc3Cl)cc2)ccn1 [compound 16] | pIC50 [2, 4]: 4.96
21 |  | 5.23 | O=C(NCc1ccc(Oc2ccncc2)cc1)Nc1ccc(Cl)cc1 [compound 16] | 
22 |  | 4.55 | Cc1ccc(NC(=O)NCc2ccc(Oc3ccncc3)cc2)c(C)c1 [compound 30] | 
23 |  |  | CNC(=O)c1cc(Oc2ccc(CNC(=O)Nc3ncc(C(F)(F)F)cc3Cl)cc2)ccn1 [compound 7] | pIC50 [2, 4]: 5.18
24 |  |  | CNC(=O)c1cc(Oc2ccc(C(O)CC(=O)Nc3ccc(Cl)c(C(F)(F)F)c3)cc2C)ccn1 (centres unmarked) [compound 2] | pIC50 ([2]; Table 6, 4 nM DDR2 kinase domain, 150 μM ATP): 4.68
25 |  | 5.55 | O=C(NCc1ccc(Oc2ccncc2)cc1)Nc1ccc(C(F)(F)F)cc1Cl [compound 37, 1-(2-Chloro-4-trifluoromethyl-phenyl)-3-[4-(pyridin-4-yloxy)-benzyl]-urea] | 
26 |  | 5.00 | CC(=O)c1cccc(NC(=O)NCc2ccc(Oc3ccncc3)cc2)c1 [compound 7] | 
27 |  | 5.85 | O=C(NCc1ccc(Oc2ccncc2)cc1)Nc1ccc(Cl)cc1Cl [compound 5] | 
28 |  | 7.33 | CNC(=O)c1cc(Oc2ccc(CNC(=O)Nc3cc(C)ccc3OC3CCNCC3)cc2C)ccn1 [compound 171, 4-(2-Methyl-4-{3-[5-methyl-2-(piperidin-4-yloxy)-phenyl]-ureidomethyl}-phenoxy)-pyridine-2-carboxylic acid methylamide] | 
29 |  | ≤ 4.00 | CCc1ccccc1NC(=O)NCc1ccc(Oc2ccncc2)cc1 [compound 28] | 
30 |  |  | CNC(=O)c1cc(Oc2ccc(CNC(=O)Nc3cc(C)ccn3)cc2C)ccn1 [compound 15] | pIC50 [2, 4]: 6.40
31 |  | 5.02 | CC(C)c1ccc(NC(=O)NCc2ccc(Oc3ccncc3)cc2)cc1 [compound 49, 1-(4-Isopropyl-phenyl)-3-[4-(pyridin-4-yloxy)-benzyl]-urea] | 
32 |  |  | COc1ncc(C)cc1NC(=O)NCc1ccc(Oc2ccnc(C)c2)c(C)c1 [compound 31] | pIC50 [2, 4]: 6.64
